# Measurements from patent publication US20090148342A1, “Hypochlorite Technology” (priority 2007, published 2009).
# Experiments:
# [1] = test system: Klebsiella species; assay: Ceramic tile disinfection with powdered hypochlorite; settings: tile sprayed with 2% solution; contact time four minutes (positive control)
# [2] = test system: Escherica coli; assay: as above; settings: tile treated with 2% NaOCl (positive control)
# [3] = test system: contaminated slides; assay: Continuous disinfection of contaminated slides by vapor emitter; type: cell-based; settings: 6000 ppm sodium hypochlorite at pH 9; contaminated slides exposed and evaluated every couple of days
# Text: Another approach is increasing the pH of the bleach solution to reduce chlorine. See in the Examples Section below. An isobaric line for constant hypochlorous acid vapor pressure can be calculated from literature values of various equilibrium constants for various concentrations of sodium hypochlorite and pH. Thus, one can maintain the performance of a desired concentration of hypochlorous acid but eliminate chlorine by increasing pH and hypochlorite concentration according to the isobaric line. […] The higher bleach concentrations also allow for smaller volumes of solution since the volume of solution required to provide a certain number of moles of hypochlorous acid decreases as the concentration increases. […] This allows much longer product lifetimes for an emitter. […] In one embodiment, the sodium hypochlorite at about pH 9 is gelled using clay.
# [4] = test system: Staphococcus species; assay: Ceramic tile disinfection with powdered hypochlorite; settings: tile treated with 2% NaOCl (positive control)
# [5] = test system: Dust mite allergen; settings: ELISA test after treatment for 1 hour; low concentration; cited from earlier work
# [6] = Stability of thickened dilute hypochlorite at 120° F.; settings: compared with thickeners of Table XXIV
smiles,measurement,setting,value
"[Na+].[O-]Cl [NaOCl, sodium hypochlorite]",bacterial growth on agar plate,[1],no bacterial growth
same,bacterial growth on agar plate,[2],no growth
same,duration of continuous disinfection,[3],continuous disinfection for more than a month
same,bacterial growth on agar plate,[4],no growth
OCl [hypochlorite ions],reduction of dust mite allergen binding,[5],up to 82%
CCCCCCCCCCCCOS(=O)(=O)[O-].[Na+] [sodium lauryl sulfate],"stability of dilute hypochlorite with surfactant, by comparison",[6],less stable than Vangel ES®
